Data: ChEMBL document CHEMBL1287669, “Inhibitors selective for HDAC6 in enzymes and cells” (Bioorg Med Chem Lett, 2010)
Active and inactive are the calls of the source. No cut-off for these calls is given here.

Columns and labels:
[1] = molecular target: T1, Protein deacetylase HDAC6 (Homo sapiens) (UniProt Q9UBN7); assay: Inhibition of recombinant human HDAC6 at 1 uM using Boc-Lys(Ac)-AMC as substrate by fluorometric analysis
T1 sequence (whole entry): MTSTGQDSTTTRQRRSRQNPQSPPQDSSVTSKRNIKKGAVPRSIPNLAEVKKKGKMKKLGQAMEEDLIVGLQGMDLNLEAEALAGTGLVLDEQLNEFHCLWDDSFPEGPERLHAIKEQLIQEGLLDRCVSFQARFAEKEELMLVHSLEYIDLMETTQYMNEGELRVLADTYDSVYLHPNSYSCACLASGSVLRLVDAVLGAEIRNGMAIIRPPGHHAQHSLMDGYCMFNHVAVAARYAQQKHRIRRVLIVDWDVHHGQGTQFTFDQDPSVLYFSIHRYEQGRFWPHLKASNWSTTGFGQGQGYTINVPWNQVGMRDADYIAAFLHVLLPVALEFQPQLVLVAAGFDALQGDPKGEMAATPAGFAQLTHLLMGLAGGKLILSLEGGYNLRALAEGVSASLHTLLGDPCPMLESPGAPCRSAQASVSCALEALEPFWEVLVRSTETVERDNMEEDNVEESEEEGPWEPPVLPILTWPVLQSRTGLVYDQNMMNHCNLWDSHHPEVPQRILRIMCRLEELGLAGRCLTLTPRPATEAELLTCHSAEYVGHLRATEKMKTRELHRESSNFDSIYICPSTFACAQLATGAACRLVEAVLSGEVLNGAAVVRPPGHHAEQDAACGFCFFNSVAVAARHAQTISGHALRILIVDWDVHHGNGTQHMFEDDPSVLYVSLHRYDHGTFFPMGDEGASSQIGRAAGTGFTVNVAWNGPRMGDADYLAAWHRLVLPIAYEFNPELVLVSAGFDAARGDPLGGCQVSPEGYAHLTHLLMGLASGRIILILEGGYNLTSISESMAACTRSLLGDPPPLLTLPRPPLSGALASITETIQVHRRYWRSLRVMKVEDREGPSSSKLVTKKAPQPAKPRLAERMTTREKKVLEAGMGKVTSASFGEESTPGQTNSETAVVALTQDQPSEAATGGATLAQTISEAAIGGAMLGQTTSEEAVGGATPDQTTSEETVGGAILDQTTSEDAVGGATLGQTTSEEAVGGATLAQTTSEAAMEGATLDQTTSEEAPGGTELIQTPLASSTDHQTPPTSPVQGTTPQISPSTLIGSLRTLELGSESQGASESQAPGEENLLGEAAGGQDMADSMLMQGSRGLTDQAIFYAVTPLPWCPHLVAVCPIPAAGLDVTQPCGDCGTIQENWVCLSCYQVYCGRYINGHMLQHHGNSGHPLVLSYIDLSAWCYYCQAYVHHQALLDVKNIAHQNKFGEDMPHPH

[2] = species: Homo sapiens; assay: Selectivity index, IC50 for recombinant human HDAC6 to IC50 for recombinant human HDAC1
[3] = molecular target: T2, Histone deacetylase 1 (Homo sapiens, UniProt Q13547); assay: Inhibition of recombinant human HDAC1 using Ac-RHKK(Ac)-ACC as substrate by fluorometric analysis
[4] = molecular target: T3, Protein deacetylase HDAC6 (Homo sapiens, UniProt Q9UBN7); assay: Inhibition of recombinant human HDAC6 using Ac-RHKK(Ac)-ACC as substrate by fluorometric analysis
T3 sequence (Q9UBN7 whole entry): T1 sequence (whole entry)

[5] = molecular target: T3, Protein deacetylase HDAC6; assay: Inhibition of recombinant human HDAC6 using Boc-Lys(Ac)-AMC as substrate by fluorometric analysis
[6] = molecular target: T2, Histone deacetylase 1; assay: Inhibition of recombinant human HDAC1 using Cbz-Lys(TFAc)-AMC as substrate by fluorometric analysis
[7] = molecular target: T2, Histone deacetylase 1; assay: Inhibition of human HDAC1 in PMA-differentiated THP1 cells assessed as hyperacetylation of histone H3 after 4 hrs by Western blotting; type: cell-based; conditions: THP-1

T2 sequence (Q13547 whole entry): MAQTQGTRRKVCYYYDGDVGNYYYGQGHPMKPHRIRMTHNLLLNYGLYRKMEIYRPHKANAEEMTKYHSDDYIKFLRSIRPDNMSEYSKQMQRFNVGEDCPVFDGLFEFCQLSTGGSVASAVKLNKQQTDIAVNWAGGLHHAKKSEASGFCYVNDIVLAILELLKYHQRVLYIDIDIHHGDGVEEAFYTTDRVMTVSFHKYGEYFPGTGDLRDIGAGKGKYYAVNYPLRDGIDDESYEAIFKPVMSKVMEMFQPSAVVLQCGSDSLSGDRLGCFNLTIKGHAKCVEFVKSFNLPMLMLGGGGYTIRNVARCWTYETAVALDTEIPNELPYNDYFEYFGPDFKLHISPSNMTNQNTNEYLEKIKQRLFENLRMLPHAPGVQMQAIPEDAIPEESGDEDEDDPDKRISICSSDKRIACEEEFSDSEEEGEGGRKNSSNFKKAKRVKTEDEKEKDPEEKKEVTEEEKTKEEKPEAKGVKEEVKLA

| SMILES | inhibition [1] [%] | IC50 [5] [nM] | IC50 [6] [nM] | also measured |
| --- | --- | --- | --- | --- |
| COC(=O)CCCCC[C@H](NC(=O)OCc1ccccc1)C(=O)NC1CCCC1 | 65 | – | – | – |
| CC(C)(C)OC(=O)N[C@@H](CCCCCCS)C(=O)NC1CCCC1 | 60 | – | – | – |
| O=C(CCCCCn1c2ccccc2c2ccccc21)NO | – | – | – | Ratio IC50 [2]: 74; IC50 [3]: 3070 nM; IC50 [4]: 41 nM |
| CC(C)(C)OC(=O)N[C@@H](CCCCCO)C(=O)NC1CCCC1 | 80 | 240 | > 10000 | – |
| CN(C)c1ccc(C(=O)N[C@@H](CCCCCC(=O)NO)C(=O)Nc2cccc3cccnc23)cc1 | – | 943 | 21 | – |
| CC(C)(C)OC(=O)N[C@@H](CCCCCC(=O)NO)C(=O)NC1CCCC1 | 99 | 26 | 1420 | IC50 [3]: 3570 nM; IC50 [4]: 27 nM |
| O=C(O)CCCCC[C@H](NC(=O)OCc1ccccc1)C(=O)NC1CCCC1 | 40 | – | – | – |
| CC(C)(C)OC(=O)N[C@@H](CCCCCCO)C(=O)NC1CCCC1 | 3 | – | – | – |
| CC(C)(C)OC(=O)N[C@@H](CCCCCC(=O)O)C(=O)NC1CCCC1 | 45 | – | – | – |
| O=C(O)CCCC[C@H](NC(=O)OCc1ccccc1)C(=O)NC1CCCC1 | 20 | – | – | – |
| COC(=O)CCCC[C@H](NC(=O)OC(C)(C)C)C(=O)NC1CCCC1 | 40 | – | – | – |
| CC(C)(C)OC(=O)N[C@@H](CCCCCS)C(=O)NC1CCCC1 | 98 | 54 | 1730 | inhibition [7]: Active |
| COC(=O)CCCCC[C@H](NC(=O)OC(C)(C)C)C(=O)NC1CCCC1 | 60 | – | – | – |
| O=C(CCCCC[C@H](NC(=O)c1cc2ccccc2[nH]1)C(=O)Nc1cccc2cccnc12)NO | – | 107 | 48 | – |
| CC(C)(C)OC(=O)N[C@@H](CCCCO)C(=O)NC1CCCC1 | 50 | – | – | – |
| CC(C)(C)OC(=O)Nc1ccc(-c2cc(C(=O)NCCCCCCC(=O)NO)no2)cc1 | – | – | 340 | IC50 [3]: 3570 nM |
